According to a melting point compilation (Tetko et al.; mined from patent text by program, amines drawn as free bases though some values may be those of a salt):

In the case of `COC1C(N2CCCC2=O)c2sccc2OC1(C)C` (configuration not stated), the melting point is reported as 117 to 118 °C.
Compound `CN1C(=O)CC[C@]2(C)c3ccc(-c4ccc(C(F)(F)F)cc4)cc3CC[C@@H]12` has a melting point of 86 to 89 °C.
In the case of `Cn1c(C(F)(F)F)cc(=O)n(Nc2cccc(Cl)c2Cl)c1=O`, the melting point is reported as 179 °C.
Work on `COc1cc(Nc2nc3cccc(-c4ccc(S(C)(=O)=O)cc4)c3o2)cc(OC)c1OC` yielded a melting point of 205 to 207 °C.
With `NC(CCO)C(=O)Nc1ccc(Cl)cc1Cl` (configuration not stated) the melting point was 89 to 91 °C.
In the case of `COC(=O)C(C)(C)CCCN1CCN(C(=O)C=Cc2ccccc2)CC1`, the melting point is reported as 76 °C.
With `O=c1c(-c2cccc(C(F)(F)F)c2)c[nH]n1-c1cccc(C(F)(F)F)c1` the melting point was 207 to 208 °C.
In the case of `O=C(OC1CCCC1)c1ccc([N+](=O)[O-])c(OC2CCCC2)c1`, the melting point is reported as 45.5 to 46.5 °C.
With `NC(=O)c1ccc(C(Cc2ccc(F)cc2)C(=O)Nc2nc3ccccc3o2)cc1` (configuration not stated) the melting point was 137 to 139 °C.
For `COc1cc(CCl)ccc1OCc1nc(-c2cccc(OS(C)(=O)=O)c2)oc1C`, the melting point was 112 to 114 °C.
Compound `Cn1c(=O)c(C#N)c(N2CCNCC2)c2cc(Cl)ccc21` has a melting point of 223 °C.
`O=C(COc1ccc(Cl)cc1Cl)C(=C1SCCCN1Cl)[N+](=O)[O-]` gave a melting point of 103 to 105 °C.
`CCn1c(=O)oc(=O)c2ccccc21` gave a melting point of 110 to 112 °C.
Work on `CC(C)c1c(Sc2cc(Cl)cc(Cl)c2)nc(CO)n1C` yielded a melting point of 167 to 168 °C.
For `Cc1oc(-c2ccccc2)nc1COc1ccc(CCCC2OC(=O)NC2=O)cc1F` (configuration not stated), the melting point was 180 to 181 °C.
With `CC(C)c1cc(S(=O)(=O)C(C)C)c(C(C)C)cc1C#N` the melting point was 130 to 134 °C.
Work on `CC(=O)C(Cc1cc(O)c(O)c([N+](=O)[O-])c1)C(C)=O` yielded a melting point of 118 to 128 °C.
For `CC(C)c1ccc(-c2noc3c2CCC(C(=O)O)CC3)cc1` (configuration not stated), the melting point was 109 to 111 °C.
`Cc1nnc(C(F)(F)F)n1-c1ccccc1` gave a melting point of 118 °C.
For `Cn1c(=O)c(C(=O)O)c(-c2ccccc2Cl)c2ccncc21`, the melting point was greater than 250 °C.
Compound `CC(C)(C)c1cc(Nc2ccccc2C=O)cc(C(C)(C)C)c1O` has a melting point of 105 to 107 °C.
`C=CCC1(CC=C)c2cc(N(c3ccccc3)c3ccccc3)ccc2-c2ccc(N(c3ccccc3)c3ccccc3)cc21` gave a melting point of 179 to 183 °C.
`COc1ccc(C(=O)c2ccccn2)c(Cl)c1Cl` gave a melting point of 104 to 107 °C.
Compound `CCOC(=O)C1=C(C)NC(SCc2ccccc2)=NC1c1cccc([N+](=O)[O-])c1` (configuration not stated) has a melting point of 129 to 130 °C.
For `COC(=N)Nc1ccc(C(F)(F)F)cc1`, the melting point was 121 to 123 °C.
In the case of `CC(=O)c1c(C)c(NC=O)c(C)c2c1OCC2c1ccc(C(C)C)cc1` (configuration not stated), the melting point is reported as 177 to 179 °C.
For `CCOC(=O)c1c(Br)c2cc(OCc3ccccc3)ccc2n1C`, the melting point was 125 to 127 °C.
In the case of `COc1ccc2c(c1OC)Oc1cccc3cncc-2c13`, the melting point is reported as 195 to 196 °C.
Compound `CC1c2ccccc2-c2ccc(F)cc2N1S(=O)(=O)c1ccc(O)cc1` (configuration not stated) has a melting point of 162 to 165 °C.
For `COc1cc(NC(=O)OC(C)(C)C)c(N)cc1-c1ccccc1F`, the melting point was 161 °C.
`Cc1c(SCCCCl)ccnc1CSc1nc2cc(F)ccc2[nH]1` showed a melting point of 188 to 191 °C.
Work on `O=C1N(CCCCN2CCN(c3n[nH]c4cc(F)ccc34)CC2)CSC12CCCC2` yielded a melting point of 132 to 134 °C.
For `C=CCOc1nc(SC)nc(NC(C)C)c1[N+](=O)[O-]`, the melting point was 51 to 54 °C.
`COc1ccc(N2C(=O)C(=C3CCCN3C)c3ccccc32)cc1F` showed a melting point of 68 to 71 °C.
Compound `O=Cc1cc(Cl)cc(C(=O)O)c1O` has a melting point of 218 °C.
With `CCCCc1nn(-c2ccccc2C(F)(F)F)c(=O)n1Cc1ccc(-c2ccccc2S(=O)(=O)NS(=O)(=O)C(F)(F)F)cc1` the melting point was 132 to 134 °C.
`OCc1csc(N2CCCC2)n1` gave a melting point of 146 to 148 °C.
For `COc1ccc(Cn2cnc3c(-c4ccco4)nc(C(F)(F)F)nc32)cc1`, the melting point was 149 to 150 °C.
`CC(C)=CCN1c2nc(Cl)ccc2NC(=O)[C@@H]1C` showed a melting point of 136 to 137 °C.
Work on `CCOc1ccc(NC(=O)c2cn(CC)c3c2C(=O)CCC3)cc1` yielded a melting point of 209 to 210 °C.
`Nc1c2c(nc3ccccc13)-c1ccc(Cl)cc1CC2` showed a melting point of 205 to 208 °C.
Compound `O=C(Nc1ccc(Cl)c(Cl)c1)c1cc(C(F)(F)F)cc([N+](=O)[O-])c1N1CCCCC1` has a melting point of 144 °C.
Work on `CC(C)(C)c1cc(C2SCC(=O)N2CCCBr)cc(C(C)(C)C)c1O` (configuration not stated) yielded a melting point of 130 to 131 °C.
`CC(C)Oc1c(C(=O)Nc2nnn[nH]2)sc2c1CCCC2` gave a melting point of 223 to 225 °C.
`CS(=O)(=O)Nc1c(CCCCCCC(=O)O)ccc2ccccc12` showed a melting point of 122 to 127 °C.
Compound `CN(C)c1ccc(C2CCc3ccccc3O2)cc1` (configuration not stated) has a melting point of 77 to 78 °C.
In the case of `COC(=O)C1=NNC(C)=C(C(=O)OC)C1c1ccc(OC)cc1` (configuration not stated), the melting point is reported as 154 °C.
Compound `CCCCC1OC(=O)c2cc(NC(=O)CCC(=O)O)ccc21` (configuration not stated) has a melting point of 163 to 165 °C.
Work on `CCc1ccc2c(c1)C=Cc1cc(C)ccc1C2c1cn(Cc2ccc(C(=O)O)o2)c(=O)[nH]c1=O` (configuration not stated) yielded a melting point of 253 °C.
For `CCCn1c(=O)c(C(=O)OCC)c(N)c2cccnc21`, the melting point was 165 to 168 °C.
In the case of `CCOP(=S)(OCC)Oc1cc(C(=O)OC)sc1C(=O)OC`, the melting point is reported as 50 °C.
`O=C1CCSc2cc(-c3ccccc3)ccc21` showed a melting point of 85 to 87 °C.
Work on `OCC1Cc2c(F)cccc2OC1CO` (configuration not stated) yielded a melting point of 99 to 101 °C.
In the case of `CSc1nccn1N=Cc1ccccc1`, the melting point is reported as 95 to 97 °C.
Work on `CCOCCOc1cc(C(O)C#Cc2ccc(C(=O)O)c(O)c2)cc2c1C(C)(C)CCC2(C)C` (configuration not stated) yielded a melting point of 120 °C.
`CC(=O)Oc1ccccc1C=C1CCCc2cc(C)cnc21` gave a melting point of 85 to 87 °C.
In the case of `CC(C)(C)OC(=O)[C@H]1CC[C@@H](c2ccccc2)N1C(=O)CNC(=O)Nc1cccc(C(=O)OCc2ccccc2)c1` (racemic), the melting point is reported as 75 °C.
Work on `CC(C)(Cc1ccccc1)C(NC(=O)c1ccc(Cl)cc1)Nc1c(Nc2cncc(C(F)(F)F)c2)c(=O)c1=O` (configuration not stated) yielded a melting point of 194 to 195 °C.
`N#CCN1CCC(NC(=O)c2cc(Cl)c(N)c3c2OCCC3)CC1` showed a melting point of 194 °C.
In the case of `CC(C)(C)c1cc(NC(=O)Nc2ccccc2C(=O)NC2CCN(C(c3ccccc3)c3ccccc3)CC2)cc(C(C)(C)C)c1O`, the melting point is reported as 218 to 225 °C.
`O=c1[nH]c2ncc(-c3cccc(-c4nc[nH]n4)c3)nc2n1CC1CCCCC1` gave a melting point of 305 to 307 °C.
Compound `CC(C)C(C(=O)O)N1C(=O)C2C3C=CC(CC3)C2C1=O` (configuration not stated) has a melting point of 156 °C.
With `CC(C)OC(=O)Nc1c(C(O)(C(F)(F)F)C(F)(F)F)ccc2ccccc12` the melting point was 139 to 141 °C.
`CCOc1cc(C(CC#N)N2C(=O)c3cccc([N+](=O)[O-])c3C2=O)ccc1OC` (configuration not stated) showed a melting point of 156 to 157 °C.
With `C[C@@H](NC(=O)c1c[nH]c2ncc(-c3nn(C)c4cc(Cl)cc(F)c34)nc12)C(=O)N1CC(C#N)C1` the melting point was 267 to 268 °C.
With `CC(C)(O)c1ccc(CNC(=O)c2cccnc2Oc2ccc3ncoc3c2)cc1` the melting point was 92 to 94 °C.
Work on `CCOC1=N[C@@H](C(C)C)C(=O)N[C@]1(C)Cc1ccccc1` yielded a melting point of 125 °C.
`CC(=S)NC[C@H]1CN(c2ccc3c(c2)C[C@@H](C)N3C(=O)CO)C(=O)O1` showed a melting point of 115 to 117 °C.
For `COc1ccc(-n2nnnc2C)cc1C=O`, the melting point was 132 to 134 °C.
Compound `C=CCN1CCC(O)(c2cc(F)cc(F)c2)C1` (single isomer, unassigned; (-)) has a melting point of 102 to 103 °C.
`CCCCCCCCCCCCCCCCCCOCC(O)Cn1cc(F)c(N)nc1=O` (configuration not stated) showed a melting point of 118 to 119 °C.
For `CCN(CC)c1ccc2cc(-c3nc(-c4ccccc4)cs3)c(=O)oc2c1`, the melting point was 127 to 130 °C.
With `Nc1cccc(CSCCNC(=O)c2c(Cl)cccc2Cl)c1` the melting point was 55 to 56 °C.
With `Cc1c(CC(C)(C)C(=O)O)n(Cc2ccc(Cl)cc2)c2ccc(OCc3ccc4ccccc4c3)cc12` the melting point was 152 °C.
In the case of `COC(=O)CC/C(C)=C/Cc1c(OC)c(C)c2c(c1C(=O)O)C(=O)OC2`, the melting point is reported as 169 to 170 °C.
For `CCc1cn(C2CC(O)C(CCC(O)C(C)Oc3ccc(Cl)cc3Cl)O2)c(=O)[nH]c1=O` (mixture of isomers), the melting point was 108 to 111 °C.
`COc1ccnc(CCc2nc3cc(-c4cccs4)cnc3[nH]2)c1` showed a melting point of 132 to 133 °C.
`CNS(=O)(=O)Cc1ccccc1Br` showed a melting point of 72.5 to 74 °C.
With `O=C(NC[C@H]1CC[C@H](C(=O)O)CC1)OCc1ccccc1` the melting point was 114 to 116 °C.
For `CC1(C)Oc2cnccc2C2OC21` (configuration not stated), the melting point was 110 to 112 °C.
Compound `CCOC(Cn1cc[nH]c1=O)c1ccc(OC)c(OC)c1` (configuration not stated) has a melting point of 134 °C.
In the case of `CSC1C(=O)Nc2c(Nc3ccccc3Cl)cccc21` (configuration not stated), the melting point is reported as 151 to 153 °C.
`Fc1cccc(F)c1-c1ncc(Oc2cccc(Cl)c2)nn1` gave a melting point of 132 to 137 °C.
For `CC(=O)C1=C(O)C(=C(C)Nc2ccccc2)C(=O)OC1=O`, the melting point was 184 to 186 °C.
`CON=C1C(c2ccccc2)=C(c2ccc(S(C)(=O)=O)cc2)C1(C)C` showed a melting point of 146 to 147 °C.
Compound `OC1c2ccccc2CSc2ccc(Br)cc21` (configuration not stated) has a melting point of 169 to 170 °C.
For `Cc1c(SCCCN2CCN(Cc3ccncc3)CC2)ccnc1CNc1cnc2ccccc2c1`, the melting point was 145 to 150 °C.
`CCN(CC)C(=O)c1c(C)cccc1Cl` showed a melting point of 48 to 49 °C.
For `O=Cc1cc2cc(Cl)c(Cl)cc2nc1Cl`, the melting point was 190 to 191 °C.
With `CC(=O)n1c(Br)cc(-c2ccc(F)cc2)c1-c1ccc(S(C)(=O)=O)cc1` the melting point was 121 to 125 °C.
For `CCc1[nH]c(=S)n(Nc2cccc(Cl)c2)c1-c1ccccc1`, the melting point was 116 to 118 °C.
Compound `CC1(C)SC(C)(C)C1C(=O)O` has a melting point of 149 to 151 °C.
Compound `COCCN(C)c1c(S(=O)(=O)C(F)(F)F)c(C#N)nn1-c1c(Cl)cc(C(F)(F)F)cc1Cl` has a melting point of 75 °C.
Work on `COc1cccc(C(=O)Nc2ccc(Cn3cnc(O)c3C(N)=O)cc2)c1` yielded a melting point of 257 to 259 °C.
`Cc1c(-c2cc(CN(C)C)ccc2F)sc2nc(N)[nH]c(=O)c12` gave a melting point of 230 to 250 °C.
With `COc1cc2c(cc1OC)CC(C(=O)O)C2` the melting point was 133 to 135 °C.
Work on `O=S(=O)(CC(O)Cn1ccnc1)c1ccccc1` (configuration not stated) yielded a melting point of 153 to 156 °C.
With `Fc1ccc(N2CCN(Cc3n[nH]c4ccccc34)CC2)cc1` the melting point was 191 to 192 °C.
Compound `CC(C)NCC1(O)CCN(c2c(F)cc3c(=O)c(C(=O)O)cn(C4CC4)c3c2F)C1` (configuration not stated) has a melting point of 213 to 214 °C.
`COc1cc(CCI)cc(OC)c1` gave a melting point of 30 to 33 °C.
With `CC1C(=O)Oc2c1cccc2S(=O)c1ccccc1Cl` (configuration not stated) the melting point was 120 to 122 °C.
Compound `COC(=O)c1ccc(CC(C)NCC(O)c2ccc(O)c(CO)c2)cc1OC` (configuration not stated) has a melting point of 64 to 71 °C.
